Data as given in US4602018A, “Condensed as-triazine derivatives” (Egyt Gyogyszevegyeszeti Gyar, priority 1983, dated 1986).
Read-outs that look alike come from different tables or passages of the source.

What was measured:
Assay type in all cases: in vivo
tetrabenazine ptosis [1] = experiment: Antagonism of tetrabenazine ptosis on mice, p.o.; conditions: for ED50: tetrabenazine 50 mg/kg i.p.
reserpine ptosis = experiment: Antagonism of reserpine ptosis on rats, p.o.; conditions: for ED50: reserpine 2.5 mg./kg. s.c.
Method: The animals showing ptosis are counted until the effect decreases. The evaluation is carried out as described in connection with the previous ptosis test (test 3).

tetrabenazine ptosis [2] = experiment: Antagonism of tetrabenazine ptosis on rats, p.o.
Method: (3) ANTAGONISM OF TETRABENAZINE PTOSIS, ON MICE AND RATS, P.O. […] The results are evaluated as follows: on the basis of all the measured data an average ptosis is calculated for each group and the deviation from the average of the control group is expressed in percent (inhibition). The ED50 values are calculated from the data thus obtained.

Acute toxicity on mice = conditions: mouse, in vivo, po, 7 days observation
Method: (§1) The test is carried out on male and female white mice belonging to the CFLP strain and weighing 18-22 g. The test compound is administered orally and the animals are observed for a period of 7 days. In the groups for each dose half of the animals are male and the other half are female. The animals are kept in a plastic box (39×12×12 cm) on scrapings litter at room temperature. The mice receive standard fodder and tap water ad libitum. The toxicity data are determined by the method of Litchfield-Wilcoxon.
(§2) The test compound is administered in an aqueous solution.

carrageenin oedema = experiment: Antiinflammatory effect on rats (carrageenin paw oedema); conditions: for ED50: Rattus norvegicus, read-out: Oedema inhibitory effect ED50
Method: Into the planar surface of the hind leg of rats weighing 150-180 g. 0.1 ml. of 1% carrageenin is injected. The volume of the paw is determined before and 3 hours after the administration of the irritating agent with a plethysmometer. The animals are pre-treated with the test compound and the carrier (control), respectively, for an hour. Because of the different solubility properties Tween 80 as auxiliary agent is used.

[3] = system: aconitine-induced ECG changes; experiment: animal or person; conditions: rats
Method: The test is carried out according to the modified method of Marmo et al. The test animals are narcotized with ethyl urethane (1.2 g./kg. i.p.). Aconitine is administered intravenously in the form of a bolus injection in a dose of 75 μg./kg. The changes of ECG are followed in standard II outlet 5 minutes after the administration of aconitine. The changes observed are evaluated with the aid of a scale from 0 to 5 points. The test compound is administered either intravenously 2 minutes before the addition of aconitine, or orally 1 hour before the aconitine administration.

Acute toxicity on rats = conditions: rat, in vivo, po, 14 days observation
tremorine-induced tremor = experiment: Antitremorine effect on mice
Method: 20 mg./kg. of tremorine are administered i.p. to mice whereupon after 45 minutes the induced characteristic tremor is registered. The test compounds are administered orally 1 hour before the addition of tremorine.

mice = experiment: Acute toxicity on mice; conditions: p.o., 7 days observation, 10080 min
Method: as §1, §2

rats = experiment: Acute toxicity on rats; conditions: p.o., 14 days observation, 20160 min
[4] = Mus musculus, po, read-out: ED50
[5] = Rattus norvegicus, po, read-out: ED50
[6] = 0.1 ml. of 1% carrageenin, 3 hours, pre-treated for an hour
[7] = Rattus norvegicus, iv, i.v. 2 minutes before aconitine 75 μg./kg. i.v.
[8] = Rattus norvegicus, po, p.o. 1 hour before aconitine 75 μg./kg. i.v.

`CN(C)CCC=C1c2ccccc2CCc2ccccc21` [Amitriptyline, N,N-dimethyl-3-[dibenzo[a,d]-cycloheptadiene-5-ylidene]-propylamine, reference compound] gave an ED50 (tetrabenazine ptosis [1]; [4]) of 12 mg/kg, a Ther. index (reserpine ptosis) of 3.6 and an ED50 (reserpine ptosis; [5]) of about 140 mg/kg. It also gave a Ther. index (tetrabenazine ptosis [2]) of 46 and an LD50 at 168 h (Acute toxicity on mice) of 225 mg/kg.
In the case of `OC1(c2ccc(Cl)cc2)NC=N[n+]2ccc3ccccc3c21` (centres unmarked) [Compound A, 1-(4-chloro-phenyl)-1-hydroxy-1,2-dihydro-as-triazino[6,1-a]isoquinolinium-ethanesulfonate], the Ther. index (tetrabenazine ptosis [1]) is reported as 1367, the ED50 (tetrabenazine ptosis [1]) is reported as 0.3 mg/kg and the Ther. index (reserpine ptosis) is reported as 92.8. The ED50 (reserpine ptosis; [5]) was 14 mg/kg, the ED50 (tetrabenazine ptosis [2]) was 0.3 mg/kg and the Ther. index (tetrabenazine ptosis [2]) was 4333. It also gave a Ther. index (carrageenin oedema) of 53.1, an ED50 (carrageenin oedema; [6]) of 24.5 mg/kg and an LD50 at 168 h (Acute toxicity on mice) of 410 mg/kg. For the same compound, the ED50 [3, 7] was 0.9 mg/kg, the ED50 [3, 8] was 40 mg/kg and the Ther. index [3] was 32.5. The LD50 at 336 h (Acute toxicity on rats) was 1300 mg/kg.
With `OC1(c2ccc(Cl)cc2)NC=N[n+]2ccc3ccccc3c21` (centres unmarked) [Compound B, 1-(4-chloro-phenyl)-1-hydroxy-1,2-dihydro-as-triazino[6,1-a]isoquinolinium-chloride] the Ther. index (tetrabenazine ptosis [1]) was 1867, the ED50 (tetrabenazine ptosis [1]) was 0.3 mg/kg and the Ther. index (tremorine-induced tremor) was 93.3. It also gave an ED50 (tremorine-induced tremor; Mus musculus, po, p.o. 1 hour before tremorine 20 mg./kg. i.p.) of 6 mg/kg, a Ther. index (reserpine ptosis) of 39.3 and an ED50 (reserpine ptosis) of 28 mg/kg. The ED50 (tetrabenazine ptosis [2]) was 1.0 mg/kg, the Ther. index (tetrabenazine ptosis [2]) was 1100 and the LD50 (mice) was 560 mg/kg. It also gave a Ther. index [3] of 27.5, an ED50 ([3]; i.v. 2 minutes before aconitine 75 μg./kg. i.v.) of 1.6 mg/kg and an ED50 ([3]; p.o. 1 hour before aconitine 75 μg./kg. i.v.) of 30 mg/kg. For the same compound, the LD50 (rats) was “about 1100 mg/kg”.
In the case of `OC1(c2ccc(Cl)cc2)NC=N[n+]2ccc3ccccc3c21` (centres unmarked) [Compound C, 1-(4-chloro-phenyl)-1-hydroxy-1,2-dihydro-as-triazino[6,1-a]isoquinolinium-bromide], the Ther. index (tetrabenazine ptosis [1]) is reported as 203, the ED50 (tetrabenazine ptosis [1]) is reported as 2.9 mg/kg and the Ther. index (reserpine ptosis) is reported as 49.0. The ED50 (reserpine ptosis) was 21 mg/kg, the ED50 (tetrabenazine ptosis [2]) was 5.4 mg/kg and the Ther. index (tetrabenazine ptosis [2]) was 191. The LD50 (mice) was 590 mg/kg and the LD50 (rats) was “about 1030 mg/kg”.
For `CCN(CC)CC(=O)Nc1c(C)cccc1C` [Lidocain, α-diethylamino-2,6-dimethyl-acetanilide, reference compound], the ED50 [3, 7] was 4 mg/kg, the ED50 [3, 8] was 120 mg/kg and the “Antiarrhythmial effect (in words)” value ([3]; i.v. and p.o.) was “inactive”. The “Antiarrhythmial effect (percent in parentheses)” value ([3]; p.o., at 120 mg./kg.) was 3.5%.
Compound `CCCCC1C(=O)N(c2ccccc2)N(c2ccccc2)C1=O` [Phenylbutazon, 4-butyl-1,2-diphenyl-3,5-pyrazolidine-dione] has a Ther. index (carrageenin oedema) of 5.3 and an ED50 (carrageenin oedema; [6]) of about 90 mg/kg.
For `Clc1ccc(-c2ncn[n+]3ccc4ccccc4c23)cc1` [Reference compound D, 1-(4-chloro-phenyl)-as-triazino[6,1-a]isochinolinium-bromide, reference compound], the ED50 (tetrabenazine ptosis [1]; [4]) was 3.2 mg/kg, the “Antitremorine effect ED50” value (tremorine-induced tremor; p.o. 1 hour before tremorine 20 mg./kg. i.p.) was “inactive” and the Ther. index (reserpine ptosis) was 16.7. The ED50 (reserpine ptosis; [5]) was about 60 mg/kg, the Ther. index (tetrabenazine ptosis [2]) was 179 and the ED50 (tetrabenazine ptosis [2]; [5]) was 5.6 mg/kg. For the same compound, the “Oedema inhibitory effect ED50” value (carrageenin oedema; [6]) was “no effect” and the LD50 at 168 h (Acute toxicity on mice) was 600 mg/kg.
